Like-named read-outs stand apart in the source and are kept apart here.
Experiments:
[1] = test system: T lymphocytes (normal mouse spleen cells) stimulated with ConA; assay: Mouse Spleen Cell ConA Blastogenesis Assay; assay type: cell-based, mouse (C57Bl/6); conditions: Mus musculus, T-lymphocyte; for inhibition at 1 µg/mL: compound 1 ug/ml; for inhibition at 2.5 µg/mL: compound 2.5 ug/ml; for inhibition at 10 µg/mL: compound 10 ug/ml; for inhibition at 25 µg/mL: compound 25 ug/ml; for inhibition at 0.1 µg/mL: compound 0.1 ug/ml
Excerpt: It is well known that several plant lectins, when cultured in vitro with lymphocytes, stimulate cellular activation and proliferation. Concanavolin, (ConA) selectively stimulates the blastogenic response of T lymphocytes.
Six to 8 week old male C57Bl/6 mice were purchased from Harlan Sprague Dawley (Indianapolis, Ind.).
Spleens were removed and were homogenized to obtain a single cell suspension. Erythrocytes were lysed by hypotonic shock. Upon determination of the viability and concentration of the lymphoid cells, they were adjusted to 4×10^6 cells/ml in culture medium (RPMI-1640) supplemented with 10% fetal bovine serum; 100 ug/ml streptomycin; 100 U/ml penicillin, 0.2M hepes buffer; 5×10^-5 M 2-mercaptoethanol and 2 mM glutamine). seeded into microtiter plate wells at 2×10^5 cells/0.050 ml/well. To these cultures were added various doses of experimental compounds and ConA at a final concentration of 4 or 1 ug/ml. Control cultures consisted of cells, ConA and culture medium containing the vehicle, DMSO only. […] For the testing of the methyl 1,3-O-isopropylidene-6-O-n-heptyl-α-D-fructofuranoside compound indomethacin and NDGA were used as controls. All cultures were run in triplicate.
Solutions of compounds of the invention in DMSO were prepared and dilutions were made in culture medium. Assay concentrations were either: 1, 2.5, 10, 25, 100, 300 and 750 ug/ml or 0.001, 0.01, 0.1, 1, 2.5, 10, 25 and 100 ug/ml.
Cultures were incubated for 3 days at 37° C. in a humidified atmosphere of 5% of CO2 in air. For the last 18 hours of culture, 1 uCi of ^3 H-thymidine was also incubated in each well. The cells were precipitated by a multi-channel harvester. The amount of ^3 H-thymidine incorporated by the cultures, as a measure of cell proliferation, was measured in a liquid scintillation counter. The amount of radioactive incorporation is proportional to the amount of cellular proliferation in individual wells. The students T test was used to determine the significance of the difference between experimental and control values.

[2] = test system: T cell proliferation in mouse spleen cell mixed lymphocyte cultures; assay: Mixed Lymphocyte Reaction (MLR) assay; assay type: cell-based, mouse (Balb/c responder, C57B1/6 stimulator); conditions: for inhibition at 3 µM / inhibition at 10 µM / inhibition at 30 µM / inhibition at 100 µM / inhibition at 300 µM: Mus musculus, Lymphocyte, read-out: % Change From Control, MLR
Excerpt: The pharmacologic assays performed to determine the immunomodulatory effects of the experimental compounds in vitro include the Mixed Lymphocyte Reaction (MLR) and the ConA blastogenesis assay. These assays were used to determine the inhibitory effects of the compounds of the invention on T lymphocyte activation and proliferation. Since inflammation at the cellular level is characterized by T lymphocyte recruitment, activation and proliferation, these assays are appropriate to use as screens for novel compounds having therapeutic potential in the treatment of disorders in which inflammatory mechanisms are involved.
The MLR is a classical assay used to measure T cell function by studying the proliferative response of T cells which are activated in vitro by genetically disparate stimulator cells. This is accomplished by co-culturing spleen cells from two different strains of mice. Splenic T cell proliferation occurs as a result of cellular activation signals generated by the ongoing cellular interactions.
Balb/c mice were euthanised by cervical dislocation and their spleens removed. Single cell suspensions of the spleens were prepared in culture medium (hepes buffered RPMI-1640 supplemented with 10% fetal calf serum, 2mM glutamine, 500 units penicillin/ streptomycin, and 4×10^-5 M 2-mercaptoethanol) using a Teflon pestle. The cells were centrifuged at 1500 rpm and the pellets resuspended in ACT (0.15M tris, 0.14M ammonium chloride, pH 7.2) in order to lyse the red blood cells. After a 5 minute incubation in a 37 C. waterbath, the cells were resuspended in culture medium and counted. C57B1/6 spleen cells which were used as stimulator cells, were also prepared by this method. The stimulator cells were treated with 100 ug/ml of mitomycin c for 1 hour at 37 C. (to inhibit stimulatory cell proliferation) and were then washed 5 times in culture medium. The proliferative responses were measured by culturing 2.5×10^5 responder cells with 5×10^5 stimulatory cells in 96 well microtiter plates in the presence or absence of various doses of test compounds or vehicle (DMSO). Syngeneic control cultures using mitomycin c treated Balb/c spleen cells as stimulator cells were also run. All cultures were run in triplicate.
Solutions of compounds of the present invention in DMSO were prepared at a stock concentration of 120 Mm. Dilutions were made in culture medium to the following concentrations: 3, 10, 30, 100, and 300 uM. The vehicle (DMSO) was used as a negative control.
After incubation of for 5 days at 37 C. with 5% CO2, the amount of cell proliferation was measured by adding 20 ul of MTT (3-[4,5-dimethylthiazol-2-yl]-2,5diphenyl-tetrazolium bromide) (10 mg/ml in phosphate buffered saline) to each well. Plates were incubated for 4 hours at 37 C., after which 180 ul of 10% sodium dodecyl sulphate in phosphate buffered saline was added. After an overnight incubation, the optical density (OD) of each well was read on a Molecular Devices microplate reader at 570-650 nm. The results were determined by calculating the difference between the means of the allogeneic cultures and the means of the syngenic cultures for each test article concentration. Differences of the test article groups were compared to the control group and the percent change from the control was determined.

[3] = ConA 1 ug/ml, read-out: % change from control, ConA blastogenic response
[4] = ConA 1 ug/ml, compound 100 ug/ml, read-out: % change from control, ConA blastogenic response
[5] = ConA 4 ug/ml, read-out: % change from control, ConA blastogenic response
[6] = ConA 4 ug/ml, compound 100 ug/ml, read-out: % change from control, ConA blastogenic response
[7] = ConA 1 ug/ml, 0.01 ug/ml, read-out: % Change from Control (Table II)
[8] = ConA 1 ug/ml, compound 0.01 ug/ml, read-out: % change from control, ConA blastogenic response
[9] = ConA 4 ug/ml, 0.01 ug/ml, read-out: % Change from Control (Table II)
[10] = ConA 4 ug/ml, compound 0.01 ug/ml, read-out: % change from control, ConA blastogenic response

Structure (SMILES)	inhibition at 1 µg/mL [1, 3]	inhibition at 2.5 µg/mL [1, 3]	inhibition at 10 µg/mL [1, 3]	inhibition at 25 µg/mL [1, 3]	inhibition at 100 µg/mL [1, 4]	inhibition at 1 µg/mL [1, 5]	inhibition at 2.5 µg/mL [1, 5]	inhibition at 10 µg/mL [1, 5]	inhibition at 25 µg/mL [1, 5]	inhibition at 100 µg/mL [1, 6]	inhibition at 0.01 µg/mL [1, 7]	inhibition at 0.01 µg/mL [1, 8]	inhibition at 0.1 µg/mL [1, 3]	inhibition at 0.01 µg/mL [1, 9]	inhibition at 0.01 µg/mL [1, 10]	inhibition at 0.1 µg/mL [1, 5]	Mean O.D. Allogenic ([2]; 3 um)	Mean O.D. Syngeneic ([2]; 3 um)	Mean O.D. Allogenic ([2]; 10 um)	Mean O.D. Syngeneic ([2]; 10 um)	further results
CCCCCCCCCCCCOC1C(C(O)CO)OC2OC(C)(C)OC21 [IIa, 1,2-O-Isopropylidene-3-O-n-dodecyl-α-D-glucofuranose]	21%	60%	95%	99%	100%	33%	50%	83%	94%	100%	–	–	–	–	–	–	–	–	–	–	inhibition at 100 µg/mL ([1]; 100 ug/ml, read-out: strong inhibition of ConA stimulated T lymphocyte proliferation): < 50%; % Change From Control, MLR ([2]; Table X, 3 ugm): -19%; % Change From Control, MLR ([2]; Table X, 10 ugm): -40%; Mean O.D. Allogenic ([2]; Table X, 10 ugm): 0.185 O.D.; Mean O.D. Syngeneic ([2]; Table X, 10 ugm): 0.135 O.D.; % Change From Control, MLR ([2]; Table X, 30 ugm): 23%; Mean O.D. Allogenic ([2]; Table X, 30 ugm): 0.158 O.D.; Mean O.D. Syngeneic ([2]; Table X, 30 ugm): 0.056 O.D.; % Change From Control, MLR ([2]; Table X, 100 ugm): -86%; % Change From Control, MLR ([2]; Table X, 300 ugm): -96%; strong non-dose dependent inhibition in MLR ([2]; several concentrations): greater than -50 % of control
CCCCCCCOC[C@H]1O[C@](COCC)(OC)[C@@H](OCC)[C@@H]1O [Ib, methyl 1,3-di-O-ethyl-6-O-heptyl-α-D-fructofuranoside]	72%	92%	96%	97%	99%	67%	68%	76%	86%	99%	55%	57%	66%	25%	35%	45%	0.319 O.D.	0.162 O.D.	0.382 O.D.	0.194 O.D.	Mean O.D. Allogenic ([2]; 30 um): 0.372 O.D.; Mean O.D. Syngeneic ([2]; 30 um): 0.185 O.D.; Mean O.D. Allogenic ([2]; 100 um): 0.353 O.D.; Mean O.D. Syngeneic ([2]; 100 um): 0.223 O.D.; Mean O.D. Allogenic ([2]; 300 um): 0.265 O.D.; Mean O.D. Syngeneic ([2]; 300 um): 0.189 O.D.; inhibition at 3 µM ([2]; 3 um): 18%; inhibition at 10 µM ([2]; 10 um): 2%; inhibition at 30 µM ([2]; 30 um): 3%; inhibition at 100 µM ([2]; 100 um): 32%; inhibition at 300 µM ([2]; 300 um): 60%
CCCCCCCO[C@@H]1[C@@H](CO)O[C@@]2(OC)COC(C)(C)O[C@@H]12 [Ic, methyl 1,3-O-isopropylidene-4-O-heptyl-α-D-fructofuranoside]	19%	21%	79%	99%	100%	35%	51%	91%	99%	100%	-11%	-8%	3%	8%	-14%	8%	0.207 O.D.	0.096 O.D.	0.198 O.D.	0.106 O.D.	Mean O.D. Allogenic ([2]; 30 um): 0.200 O.D.; Mean O.D. Syngeneic ([2]; 30 um): 0.148 O.D.; Mean O.D. Allogenic ([2]; 100 um): 0.163 O.D.; Mean O.D. Syngeneic ([2]; 100 um): 0.077 O.D.; Mean O.D. Allogenic ([2]; 300 um): 0.034 O.D.; Mean O.D. Syngeneic ([2]; 300 um): 0.159 O.D.; inhibition at 3 µM ([2]; 3 um): -34%; inhibition at 10 µM ([2]; 10 um): -11%; inhibition at 30 µM ([2]; 30 um): 37%; inhibition at 100 µM ([2]; 100 um): -4%; inhibition at 300 µM ([2]; 300 um): 251%

Reference: patent publication US5298494A, “Monosaccharides having anti-proliferation and anti-inflammatory activity, compositions and uses thereof” (Greenwich Pharmaceuticals Incorporated, priority 1993, dated 1994)
